# Laboratory results reported in the supplement of paper PMC9663587.
# Legend:
# [1] = compound: CC(=O)c1c(C)c2cnc(Nc3ccc(N4CCN(CCOCCOCCOCCNC(=O)COc5cccc6c5C(=O)N(C5CCC(=O)NC5=O)C6=O)CC4)cn3)nc2n(C2CCCC2)c1=O [BSJ-03-123]; test: increase in dead-cell fraction, 72 h; higher = more death;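 note: breast cancer cell lines in 384-well plates, stained with Hoechst plus LIVE/DEAD far red dye and imaged, cells above an LDR intensity threshold counted dead, Hoechst-negative corpses included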
# [2] = compound: T1, CN(C)C/C=C/C(=O)Nc1ccc(C(=O)Nc2cccc(Nc3ncc(Cl)c(-c4c[nH]c5ccccc45)n3)c2)cc1 [THZ1]; test: as above
# [3] = compound: CN(C)C/C=C/C(=O)Nc1ccc(C(=O)N2CCC[C@@H](Nc3ncc(Cl)c(-c4c[nH]c5ccccc45)n3)C2)cc1 [THZ531]; test: GR value, 72 h; higher = faster growth (1 = untreated, <0 = killing);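 note: breast cancer and non-malignant breast epithelial lines, nine half-log doses, viable cells counted by Hoechst and LIVE/DEAD dye imaging versus time-zero plates and DMSO controls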
# [4] = compound: CC(=O)c1c(C)c2cnc(Nc3ccc(N4CCNCC4)cn3)nc2n(C2CCCC2)c1=O; test: as above
# [5] = compound: CN1CC[C@H](c2c(O)cc(O)c3c(=O)cc(-c4ccccc4Cl)oc23)[C@H](O)C1 [Flavopiridol]; test: as above
# [6] = compound: T1, THZ1; test: as above
cell line,measurement,setting,value
HTERT_HME1,increase in dead-cell fraction,[1]; 0.001 µM,0.0124
same,increase in dead-cell fraction,[1]; 0.003162 µM,-0.0077
same,increase in dead-cell fraction,[1]; 0.01 µM,0.0297
same,increase in dead-cell fraction,[1]; 0.03162 µM,0.0411
same,increase in dead-cell fraction,[1]; 0.1 µM,0.0394
same,increase in dead-cell fraction,[1]; 0.3162 µM,0.0338
same,increase in dead-cell fraction,[1]; 1 µM,0.131
same,increase in dead-cell fraction,[1]; 3.162 µM,0.119
same,increase in dead-cell fraction,[1]; 10 µM,0.363
same,increase in dead-cell fraction,[2]; 0.0001 µM,-0.0026
same,increase in dead-cell fraction,[2]; 0.0003162 µM,0.0021
same,increase in dead-cell fraction,[2]; 0.001 µM,0.0031
same,increase in dead-cell fraction,[2]; 0.003162 µM,0.0375
same,increase in dead-cell fraction,[2]; 0.01 µM,0.292
same,increase in dead-cell fraction,[2]; 0.03162 µM,0.545
same,increase in dead-cell fraction,[2]; 0.1 µM,0.528
same,increase in dead-cell fraction,[2]; 0.3162 µM,0.548
same,increase in dead-cell fraction,[2]; 1 µM,0.71
same,GR value,[3]; 0.0001 µM,0.956 GR
same,GR value,[3]; 0.0003162 µM,0.956 GR
same,GR value,[3]; 0.001 µM,0.939 GR
same,GR value,[3]; 0.003162 µM,1.03 GR
same,GR value,[3]; 0.01 µM,1.11 GR
same,GR value,[3]; 0.03162 µM,1.02 GR
same,GR value,[3]; 0.1 µM,0.889 GR
same,GR value,[3]; 0.3162 µM,0.179 GR
same,GR value,[3]; 1 µM,-0.207 GR
same,GR value,[4]; 0.0003162 µM,1.03 GR
same,GR value,[4]; 0.001 µM,1.06 GR
same,GR value,[4]; 0.003162 µM,1.03 GR
same,GR value,[4]; 0.01 µM,0.956 GR
same,GR value,[4]; 0.03162 µM,0.796 GR
same,GR value,[4]; 0.1 µM,0.615 GR
same,GR value,[4]; 0.3162 µM,0.458 GR
same,GR value,[4]; 1 µM,0.354 GR
same,GR value,[4]; 3.162 µM,0.235 GR
same,GR value,[5]; 0.0001 µM,1 GR
same,GR value,[5]; 0.0003162 µM,0.975 GR
same,GR value,[5]; 0.001 µM,0.942 GR
same,GR value,[5]; 0.003162 µM,0.876 GR
same,GR value,[5]; 0.01 µM,0.892 GR
same,GR value,[5]; 0.03162 µM,0.806 GR
same,GR value,[5]; 0.1 µM,0.536 GR
same,GR value,[5]; 0.3162 µM,0.155 GR
same,GR value,[5]; 1 µM,-0.408 GR
same,GR value,[6]; 0.0001 µM,1.1 GR
same,GR value,[6]; 0.0003162 µM,0.944 GR
same,GR value,[6]; 0.001 µM,0.928 GR
same,GR value,[6]; 0.003162 µM,0.72 GR
same,GR value,[6]; 0.01 µM,-0.0367 GR
same,GR value,[6]; 0.03162 µM,-0.275 GR
same,GR value,[6]; 0.1 µM,-0.295 GR
same,GR value,[6]; 0.3162 µM,-0.319 GR
same,GR value,[6]; 1 µM,-0.497 GR
